Laboratory results: patent publication US3988316A, “Antibiotics sisomicin and verdamicin I and complex containing same” (Schering Corporation, priority 1975, dated 1976)
Where a name gives a salt, the structure may show the parent alone.

Assays:
Escherichia coli 10536 = assay: Protective Activity in Mice; format: in vivo; details: S.C., single dose one hour after intraperitoneal infection
Description: (§1) Verdamicin I was tested against four (4) species of infectious bacteria in mice and was administered as a single subcutaneous dose one (1) hour after infection via intraperitoneal injection of a lethal quantity of pathogen.
(§2) Results obtained with gentamicin are set for comparison.

[1] = test system: Pseudomonas aeruginosa 8689; assay: Protective Activity in Mice; format: in vivo; details: S.C., single dose one hour after intraperitoneal infection
Description: as §1, §2

[2] = test system: Staphylococcus aureus Gray; assay: Protective Activity in Mice; format: in vivo; details: S.C., single dose one hour after intraperitoneal infection
Description: as §1, §2

Streptococcus pyogenes C = assay: Protective Activity in Mice; format: in vivo; details: S.C., single dose one hour after intraperitoneal infection
Description: as §1, §2

[3] = test system: Staphylococcus aureus ATCC 6538P; assay: Disc plate microbiological assay
Description: Th microbiological assay of the antibiotic substances is a disc plate assay using Staphylococcus aureus ATCC 6538P as test organism.

in vivo = details: mouse, iv
[4] = pKa (Chemical and Physical Properties of Verdamicin I); format: physicochemical; details: base
Excerpt: In table VI below are set forth physical properties of […] as the hydrated free nitrogen base and as the sulfuric acid addition salt (sulfate).

[5] = test system: gram positive and gram-negative bacteria; assay: In vitro antibacterial activity, Verdamicin I (in words); format: cell-based
[6] = test system: gram-positive and gram-negative organisms; assay: In vivo antibacterial activity in mice (in words)
Description: as §1, §2

Molecule: gentamicin [reference compound]
- PD50 (Escherichia coli 10536): 1.7 mg/kg
- PD50 [1]: 1.7 mg/kg
- PD50 [2]: 2.4 mg/kg
- PD50 (Streptococcus pyogenes C): 5.0 mg/kg

Molecule: CN[C@@H]1[C@@H](O)[C@@H](O[C@@H]2[C@@H](O)[C@H](O[C@H]3OC(C(C)N)=CC[C@H]3N)[C@@H](N)C[C@H]2N)OC[C@]1(C)O (stereo partly drawn) [Verdamicin I Sulfate]
- potency against its own base as the comparison standard ([3]; own base as comparison standard): 695 meg/mg

Molecule: CN[C@@H]1[C@@H](O)[C@@H](O[C@@H]2[C@@H](O)[C@H](O[C@H]3OC(C(C)N)=CC[C@H]3N)[C@@H](N)C[C@H]2N)OC[C@]1(C)O (stereo partly drawn) [Verdamicin I]
- ED50 (Escherichia coli 10536; Escherichia coli, 10536, sc, 1 h, read-out: PD50): 1.5 mg/kg
- ED50 ([1]; Pseudomonas aeruginosa, 8689, sc, 1 h, read-out: PD50): 2 mg/kg
- ED50 ([2]; Staphylococcus aureus, sc, 1 h, read-out: PD50): 2.5 mg/kg
- ED50 (Streptococcus pyogenes C; Streptococcus pyogenes, sc, 1 h, read-out: PD50): 1 mg/kg
- LD50 (in vivo): 75 mg/kg
- pKa [4]: 8.1
- antibacterial activity in vitro [5]: broad spectrum of antibacterial activity
- in vivo antibacterial activity [6]: potent antibacterial agent
- dose response curve ([3]; gentamicin assay): parallel to that of gentamicin
- zone of inhibition ([3]; one meg. of standard): 17.0 ± 1.3 mm
